Literature values, collected in patent US20220273698A1, “MEDICINAL AND/OR PHARMACEUTICAL COMPOSITIONS FOR INTRAVESICAL INSTILLATION, PREPARATION AND USE THEREOF” (priority 2019, published 2022).

Experiments:
[1] = oral medicine
[2] = taking PPS over a long time

active agent absorbed [1]: 5%
Substance: pentosan polysulfate sodium [Elmiron]
side effect [2]: pigmentary maculopathy
